Data reported in patent US7316989B2 (priority 2001, dated 2008).
Like-named read-outs stand apart in the source and are kept apart here.

Key:
[1] = test system: rice blast fungus (Magnaporthe grisea, race: 007); format: in vivo
[2] = test system: Brown spot fungus (Cochliobolus miyabeanus); experiment: Rice Brown spot control test; format: in vivo; conditions: same treatment as Example 3 (10 ppm in terms of cerebroside B), counted two days after spray inoculation
[3] = test system: rice blast (leaf blast); format: in vivo, Magnaporthe grisea; conditions: rice (Koshihikari) field, spray 120 L/10 are on 44th and 51st days after transplantation; E and F 20 ppm in terms of cerebroside B, F and G with Mylinow spreader, G 500 ppm fthalide; leaf blast one month after initial application
[4] = test system: lettuce root rot fungus (Fusarium oxysporum f. sp. lactucae race SB1-1); experiment: Lettuce root rot control test; format: in vivo; conditions: submersion treatment, 20 ppm cerebroside B solution (H)
[5] = test system: tomato verticullium wilt fungus (Verticillium dahliae); experiment: Tomato verticillium wilt control test; format: in vivo; conditions: submersion 12 hr, 20 ppm in terms of cerebroside B, 21st day
[6] = test system: sweet potato dead arm fungus (Fusarium oxysporum); experiment: Sweet potato stem rot control test; conditions: sweet potato (Benikomachi) roots submerged 30 min, 20 ppm in terms of cerebroside B; disease development of roots 26 days after transplantation
Method: The root parts of seedling sweet potatoes (variety: Benikomachi) infected with sweet potato dead arm fungus (Fusarium oxysporum) were submerged in each sample solution for 30 min before planting in a field. Individual plots were treated by the following sample liquids. Experimental plot (E) was treated with a liquid (concentration: 20 ppm in terms of cerebroside B) prepared by diluting ethanol extract concentrate A prepared in Example 1 by 150 times. Comparison plot (H) was treated with a liquid having a cerebroside B concentration of 20 ppm. The number of plants per plot was 20, and one plot consisted of four blocks which were provided at intervals of 60 cm. In this state, the plants were transplanted in the field.
The percentage disease development of roots was investigated 26 days after the transplantation, and the protective value was calculated from the average percentage disease development of roots.

SMILES: CCCCCCCCCCCCCC[C@@H](O)C(=O)N[C@@H](CO[C@@H]1O[C@H](CO)[C@@H](O)[C@H](O)[C@H]1O)[C@H](O)/C=C/CC/C=C(\C)CCCCCCCCC [cerebroside B, (4E,8E)-N-D-2′-hydroxypalmitoyl-1-O-β-D-glucopyranosyl-9-methyl-4,8-sphingadienine]
- Protective value ([1]; Example 4, 10 ppm in terms of cerebroside B, 2 ml per pot to foliage, plot B with 0.1% Tween 20 as spreader): 87.6
- Number of lesions (average number of lesions per leaf) ([1]; Example 4, 10 ppm in terms of cerebroside B, 2 ml per pot to foliage, plot B with 0.1% Tween 20 as spreader, control plot 18.6): 2.3
- Protective value ([1]; rice (Akitakomachi), foliar application 2 ml per pot, diluted to 10 ppm in terms of cerebroside B, inoculation 3 days after treatment, lesions counted 5 days after inoculation): 90
- Protective value [2]: 87.3
- Number of lesions (average number of lesions per leaf) ([2]; control plot 10.2): 1.3
- Protective value [3]: 93
- Protective value ([4]; 28th day): 78
- Raw weight ratio on ground part ([4]; control plot = 100): 231
- Protective value [5]: 60
- Protective value [6]: 70
